Test results as given in patent US10004701B2, “Methods and compositions for treating infection” (UNIVERSITY OF ROCHESTER, priority 2012, dated 2018).
Where a name gives a salt, the structure may show the parent alone. Read-outs that look alike come from different tables or passages of the source.

Columns and labels:
Assay in all cases: AK assay 384-well format, Prestwick library screening
E. coli = type: cell-based, Escherichia coli; details: Escherichia coli, 3 h, 50 μM final drug concentration
P. aeruginosa = type: cell-based, Pseudomonas aeruginosa; details: Pseudomonas aeruginosa, 3 h, 50 μM final drug concentration
E. cloacae = type: cell-based, Enterobacter cloacae; details: Enterobacter cloacae, 3 h, 50 μM final drug concentration
K. pneumoniae = type: cell-based, Klebsiella pneumoniae; details: Klebsiella pneumoniae, 3 h, 50 μM final drug concentration
[1] = system: S. aureus strain USA300-0114; type: cell-based, Staphylococcus aureus; details: Staphylococcus aureus, USA300, 3 h, 50 μM final drug concentration
E. faecium = type: cell-based, Enterococcus faecium; details: Enterococcus faecium, 3 h, 50 μM final drug concentration
[2] = system: A. baumannii strain 98-37-09; type: cell-based, Acinetobacter baumannii; details: Acinetobacter baumannii, 983709, 3 h, 50 μM final drug concentration
[3] = 384-well format, cutoff for positive-scoring molecules 3-fold increase, read-out: AK-based Prestwick Library Screening Results, E. coli (increase in extracellular AK activity)
[4] = 384-well format, cutoff for positive-scoring molecules 3-fold increase, read-out: AK-based Prestwick Library Screening Results, P. aeruginosa (increase in extracellular AK activity)
[5] = 384-well format, cutoff for positive-scoring molecules 3-fold increase, read-out: AK-based Prestwick Library Screening Results, E. cloacae (increase in extracellular AK activity)
[6] = 384-well format, cutoff for positive-scoring molecules 3-fold increase, read-out: AK-based Prestwick Library Screening Results, K. pneumoniae (increase in extracellular AK activity)
[7] = 384-well format, cutoff for positive-scoring molecules 3-fold increase, read-out: AK-based Prestwick Library Screening Results, S. aureus (increase in extracellular AK activity)
[8] = 384-well format, cutoff for positive-scoring molecules 3-fold increase, read-out: AK-based Prestwick Library Screening Results, E. faecium (increase in extracellular AK activity)
[9] = 384-well format, cutoff for positive-scoring molecules 3-fold increase, read-out: AK-based Prestwick Library Screening Results, A. baumannii (increase in extracellular AK activity)
[10] = planktonic, cutoff for positive-scoring molecules 3-fold increase, read-out: AK-based Prestwick Library Screening Results, E. coli (fold increase in extracellular AK activity)
[11] = planktonic, cutoff for positive-scoring molecules 3-fold increase, read-out: AK-based Prestwick Library Screening Results, P. aeruginosa (fold increase in extracellular AK activity)
[12] = planktonic, cutoff for positive-scoring molecules 3-fold increase, read-out: AK-based Prestwick Library Screening Results, E. cloacae (fold increase in extracellular AK activity)
[13] = planktonic, cutoff for positive-scoring molecules 3-fold increase, read-out: AK-based Prestwick Library Screening Results, K. pneumoniae (fold increase in extracellular AK activity)
[14] = planktonic, cutoff for positive-scoring molecules 3-fold increase, read-out: AK-based Prestwick Library Screening Results, S. aureus (fold increase in extracellular AK activity)
[15] = planktonic, cutoff for positive-scoring molecules 3-fold increase, read-out: AK-based Prestwick Library Screening Results, E. faecium (fold increase in extracellular AK activity)
[16] = planktonic, cutoff for positive-scoring molecules 3-fold increase, read-out: AK-based Prestwick Library Screening Results, A. baumannii (fold increase in extracellular AK activity)

Compound `CCNCC(O)c1cccc(O)c1` (stereo not drawn) [Etilefrine hydrochloride] has a fold induction at 50 µM (E. coli; planktonic E. coli, positive cutoff 3-fold increase, read-out: AK-based Prestwick library screening result, E. coli (fold increase in extracellular AK activity)) of 1, a fold induction at 50 µM (P. aeruginosa; planktonic P. aeruginosa, positive cutoff 3-fold increase, read-out: AK-based Prestwick library screening result, P. aeruginosa (fold increase in extracellular AK activity)) of 1.1 and a fold induction at 50 µM (E. cloacae; planktonic E. cloacae, positive cutoff 3-fold increase, read-out: AK-based Prestwick library screening result, E. cloacae (fold increase in extracellular AK activity)) of 1.5. The fold induction at 50 µM (K. pneumoniae; planktonic K. pneumoniae, positive cutoff 3-fold increase, read-out: AK-based Prestwick library screening result, K. pneumoniae (fold increase in extracellular AK activity)) was 0.8, the fold induction at 50 µM ([1]; planktonic S. aureus, positive cutoff 3-fold increase, read-out: AK-based Prestwick library screening result, S. aureus (fold increase in extracellular AK activity)) was 1.1 and the fold induction at 50 µM (E. faecium; planktonic E. faecium, positive cutoff 3-fold increase, read-out: AK-based Prestwick library screening result, E. faecium (fold increase in extracellular AK activity)) was 1. For the same compound, the fold induction at 50 µM ([2]; planktonic A. baumannii, positive cutoff 3-fold increase, read-out: AK-based Prestwick library screening result, A. baumannii (fold increase in extracellular AK activity)) was 1.4.
`CCc1cccc2c3c([nH]c12)C(CC)(CC(=O)O)OCC3` (stereo not drawn) [Etodolac] showed a fold induction at 50 µM (E. coli; planktonic E. coli, 384-well, […], read-out: AK-based Prestwick Library Screening Results: E. coli (increase in extracellular AK activity)) of 1.2, a fold induction at 50 µM (P. aeruginosa; planktonic P. aeruginosa, 384-well, cutoff for positive-scoring molecules 3-fold increase, read-out: AK-based Prestwick Library Screening Results: P. aeruginosa (increase in extracellular AK activity)) of 1.5 and a fold induction at 50 µM (E. cloacae; planktonic E. cloacae, 384-well, cutoff for positive-scoring molecules 3-fold increase, read-out: AK-based Prestwick Library Screening Results: E. cloacae (increase in extracellular AK activity)) of 1.2. For the same compound, the fold induction at 50 µM (K. pneumoniae; planktonic K. pneumoniae, 384-well, cutoff for positive-scoring molecules 3-fold increase, read-out: AK-based Prestwick Library Screening Results: K. pneumoniae (increase in extracellular AK activity)) was 1.3, the fold induction at 50 µM ([1]; planktonic S. aureus, 384-well, cutoff for positive-scoring molecules 3-fold increase, read-out: AK-based Prestwick Library Screening Results: S. aureus (increase in extracellular AK activity)) was 1 and the fold induction at 50 µM (E. faecium; planktonic E. faecium, 384-well, cutoff for positive-scoring molecules 3-fold increase, read-out: AK-based Prestwick Library Screening Results: E. faecium (increase in extracellular AK activity)) was 1.1. For the same compound, the fold induction at 50 µM ([2]; planktonic A. baumannii, 384-well, cutoff for positive-scoring molecules 3-fold increase, read-out: AK-based Prestwick Library Screening Results: A. baumannii (increase in extracellular AK activity)) was 1.4.
For `Cn1c(=O)c2c(ncn2CCO)n(C)c1=O` [Etofylline], the fold induction at 50 µM (E. coli; [3]) was 0.8, the fold induction at 50 µM (P. aeruginosa; [4]) was 0.7 and the fold induction at 50 µM (E. cloacae; [5]) was 0.9. For the same compound, the fold induction at 50 µM (K. pneumoniae; [6]) was 0.6, the fold induction at 50 µM [1, 7] was 0.8 and the fold induction at 50 µM (E. faecium; [8]) was 1. It also gave a fold induction at 50 µM [2, 9] of 0.8.
For `COc1cc([C@@H]2c3cc4c(cc3[C@@H](O[C@@H]3O[C@@H]5CO[C@@H](C)O[C@H]5[C@H](O)[C@H]3O)[C@H]3COC(=O)[C@H]23)OCO4)cc(OC)c1O` [Etoposide], the fold induction at 50 µM (E. coli; planktonic, […], read-out: AK-based Prestwick Library Screening Results, E. coli (fold increase in extracellular AK activity)) was 1.2, the fold induction at 50 µM (P. aeruginosa; planktonic, cutoff for positive 3-fold increase, read-out: AK-based Prestwick Library Screening Results, P. aeruginosa (fold increase in extracellular AK activity)) was 1 and the fold induction at 50 µM (E. cloacae; planktonic, cutoff for positive 3-fold increase, read-out: AK-based Prestwick Library Screening Results, E. cloacae (fold increase in extracellular AK activity)) was 1.4. For the same compound, the fold induction at 50 µM (K. pneumoniae; planktonic, cutoff for positive 3-fold increase, read-out: AK-based Prestwick Library Screening Results, K. pneumoniae (fold increase in extracellular AK activity)) was 1, the fold induction at 50 µM ([1]; planktonic, cutoff for positive 3-fold increase, read-out: AK-based Prestwick Library Screening Results, S. aureus (fold increase in extracellular AK activity)) was 1.4 and the fold induction at 50 µM (E. faecium; planktonic, cutoff for positive 3-fold increase, read-out: AK-based Prestwick Library Screening Results, E. faecium (fold increase in extracellular AK activity)) was 1.1. It also gave a fold induction at 50 µM ([2]; planktonic, cutoff for positive 3-fold increase, read-out: AK-based Prestwick Library Screening Results, A. baumannii (fold increase in extracellular AK activity)) of 1.2.
`CC1CC(OC(=O)C(O)c2ccccc2)CC(C)(C)N1C` (stereo not drawn) [Eucatropine hydrochloride] was tested, and the fold induction at 50 µM (E. coli; cutoff for positive-scoring molecules 3-fold increase, read-out: AK-based Prestwick Library Screening Results, E. coli (fold increase in extracellular AK activity)) was 1.2, the fold induction at 50 µM (P. aeruginosa; cutoff for positive-scoring molecules 3-fold increase, read-out: AK-based Prestwick Library Screening Results, P. aeruginosa (fold increase in extracellular AK activity)) was 1.1 and the fold induction at 50 µM (E. cloacae; cutoff for positive-scoring molecules 3-fold increase, read-out: AK-based Prestwick Library Screening Results, E. cloacae (fold increase in extracellular AK activity)) was 1.6. For the same compound, the fold induction at 50 µM (K. pneumoniae; cutoff for positive-scoring molecules 3-fold increase, read-out: AK-based Prestwick Library Screening Results, K. pneumoniae (fold increase in extracellular AK activity)) was 0.9, the fold induction at 50 µM ([1]; cutoff for positive-scoring molecules 3-fold increase, read-out: AK-based Prestwick Library Screening Results, S. aureus (fold increase in extracellular AK activity)) was 1.3 and the fold induction at 50 µM (E. faecium; cutoff for positive-scoring molecules 3-fold increase, read-out: AK-based Prestwick Library Screening Results, E. faecium (fold increase in extracellular AK activity)) was 1.1. For the same compound, the fold induction at 50 µM ([2]; cutoff for positive-scoring molecules 3-fold increase, read-out: AK-based Prestwick Library Screening Results, A. baumannii (fold increase in extracellular AK activity)) was 1.1.
With `COc1c2ccoc2nc2c(OC)c(OCC(O)C(C)(C)O)ccc12` (stereo not drawn) [Evoxine] the fold induction at 50 µM (E. coli; [10]) was 0.7, the fold induction at 50 µM (P. aeruginosa; [11]) was 0.8 and the fold induction at 50 µM (E. cloacae; [12]) was 1.1. For the same compound, the fold induction at 50 µM (K. pneumoniae; [13]) was 0.7, the fold induction at 50 µM [1, 14] was 0.6 and the fold induction at 50 µM (E. faecium; [15]) was 0.8. It also gave a fold induction at 50 µM [2, 16] of 0.7.
With `NC(N)=Nc1nc(CSCCC(N)=NS(N)(=O)=O)cs1` [Famotidine] the fold induction at 50 µM (E. coli; [3]) was 0.9, the fold induction at 50 µM (P. aeruginosa; [4]) was 0.8 and the fold induction at 50 µM (E. cloacae; [5]) was 1. For the same compound, the fold induction at 50 µM (K. pneumoniae; [6]) was 0.8, the fold induction at 50 µM [1, 7] was 0.5 and the fold induction at 50 µM (E. faecium; [8]) was 0.8. It also gave a fold induction at 50 µM [2, 9] of 0.8.
`CC(C)c1c(CN(C)C(C)Cc2ccccc2)n(C)n(-c2ccccc2)c1=O` (stereo not drawn) [Famprofazone] was tested, and the fold induction at 50 µM (E. coli; […], read-out: AK-based Prestwick Library Screening Results, E. coli (fold increase in extracellular AK activity)) was 1.2, the fold induction at 50 µM (P. aeruginosa; […], read-out: AK-based Prestwick Library Screening Results, P. aeruginosa (fold increase in extracellular AK activity)) was 1.2 and the fold induction at 50 µM (E. cloacae; […], read-out: AK-based Prestwick Library Screening Results, E. cloacae (fold increase in extracellular AK activity)) was 1.5. For the same compound, the fold induction at 50 µM (K. pneumoniae; […], read-out: AK-based Prestwick Library Screening Results, K. pneumoniae (fold increase in extracellular AK activity)) was 1.1, the fold induction at 50 µM ([1]; […], read-out: AK-based Prestwick Library Screening Results, S. aureus (fold increase in extracellular AK activity)) was 0.8 and the fold induction at 50 µM (E. faecium; […], read-out: AK-based Prestwick Library Screening Results, E. faecium (fold increase in extracellular AK activity)) was 1. The fold induction at 50 µM ([2]; […], read-out: AK-based Prestwick Library Screening Results, A. baumannii (fold increase in extracellular AK activity)) was 1.1.
In the case of `O=C(O)Cc1ccc(-c2ccccc2)cc1` [Felbinac], the fold induction at 50 µM (E. coli; [10]) is reported as 0.7, the fold induction at 50 µM (P. aeruginosa; [11]) is reported as 0.7 and the fold induction at 50 µM (E. cloacae; [12]) is reported as 1. The fold induction at 50 µM (K. pneumoniae; [13]) was 0.6, the fold induction at 50 µM [1, 14] was 0.6 and the fold induction at 50 µM (E. faecium; [15]) was 0.9. It also gave a fold induction at 50 µM [2, 16] of 0.8.
